Test results from US20150328232A1, “PROSTACYLIN COMPOSITIONS AND METHODS FOR USING THE SAME” (INSMED INCORPRATION, priority 2012, published 2015).

Experiments:
[1] = cited from earlier work
[2] = Dialysis assay against PBS (treprostinil release); format: physicochemical; conditions: 5 mL dialyzed against 1 L 1×PBS, 50 kDa MW cutoff membrane
Experimental: The results of this study can be used as an indication of which compositions might provide a sustained release profile in vivo.
5 mL of each sample was dialyzed against 1 L of 1×PBS. […] sample was collected and tested by HPLC at different time points (FIG. 7). 250 μL sample was collected at 24 h. Each time a sample was collected, an equal volume of 1×PBS was added to the dialysis bag. Absorbance data was normalized to the calculated dilution factor.

[3] = target: T1, EP2 prostanoid receptor (Homo sapiens, UniProt P43116); assay: GloSensor cAMP assay in CHO-K1 cells co-transfected with EP2 receptor; format: cell-based
T1 construct: host or cells: CHO-K1
T1 sequence (P43116 whole entry): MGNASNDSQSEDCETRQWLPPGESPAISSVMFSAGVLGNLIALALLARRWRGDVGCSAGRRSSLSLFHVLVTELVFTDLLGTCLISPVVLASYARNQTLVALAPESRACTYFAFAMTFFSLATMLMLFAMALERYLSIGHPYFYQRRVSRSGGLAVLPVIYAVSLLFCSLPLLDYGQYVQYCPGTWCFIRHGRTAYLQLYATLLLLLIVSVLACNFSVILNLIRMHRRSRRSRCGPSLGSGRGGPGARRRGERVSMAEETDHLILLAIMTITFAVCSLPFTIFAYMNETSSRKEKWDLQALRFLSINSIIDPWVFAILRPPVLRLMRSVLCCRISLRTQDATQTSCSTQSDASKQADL
Source text: A cell based Chinese hamster ovary-K1 (CHO-K1) assay based on the GloSensor™ cAMP assay (Promega) was used to characterize the effect of treprostinil alkyl ester compounds on cAMP levels.
cAMP is a second messenger involved in signal transduction of G-protein coupled receptors (GPCRs) acting through Gα-s and Gα-i proteins. Because the treprostinil receptor is a GPCR, the assay provides an indication of whether the respective prostacyclin composition binds its receptor and activates the GPCR cell signaling cascade.
The GloSensor™ assay harnesses a genetically modified form of firefly luciferase into which a cAMP-binding protein moiety has been inserted. Upon binding of cAMP, a conformational change is induced leading to increased light output.
The EP2 prostanoid receptor was co-transfected with the GloSensor™ plasmid (Promega) into CHO-K1 cells as follows. CHO-K1 cells were harvested when the monoloayer was at 50-90% confluence. First, cells were washed with 5 mL PBS. […] Cell number was determined using a hemacytometer. […]
Following incubation, cells were treated and analyzed. […] Cell number was determined using a hemacytometer. […] Following an overnight incubation at 37° C. and 5% CO2 in a water-jacketed incubator, the cells were ready for use in cAMP response assays. […]

Structure (SMILES) | half-life ([1]; in vivo) [min] | rate of treprostinil release during dialysis [2] | sustained cAMP level [3] | time to steady state plasma concentrations ([1]; continuous subcutaneous infusion, 1.25 to 22 ng/kg/min) | excreted in urine as identifiable metabolite ([1]; in vivo) [%] | excreted in urine as unchanged drug ([1]; in vivo) [%] | decrease of clearance ([1]; patients with hepatic insufficiency) | absolute bioavailability ([1]; subcutaneous administration) [%] | elimination half-life ([1]; subcutaneous administration) [h] | administered drug excreted in urine ([1]; unchanged drug or identifiable metabolite)
CCCCC[C@H](O)/C=C/[C@@H]1[C@H]2C/C(=C/CCCC(=O)O)O[C@H]2C[C@H]1O [epoprostenol] | 2 to 7 |  |  |  |  |  |  |  |  | 
CCCCC[C@H](O)CC[C@@H]1[C@H]2Cc3cccc(OCC(=O)O)c3C[C@H]2C[C@H]1O [treprostinil] |  | dialyzed out the fastest | not exhibited | about 10 hours | 64 | 4 | up to 80% | 100 | 4.6 | Approximately 79%
